Source: ChEMBL document CHEMBL5653631, “A Potent and Selective ULK1 Inhibitor Suppresses Autophagy and Sensitizes Cancer Cells to Nutrient Stress” (iScience, 2018)
Blank lines part the entries; values can stand above or below the molecule they belong to.

How the values were obtained:
[1] = target: T1, Calcium/calmodulin-dependent protein kinase type IV (Homo sapiens) (UniProt Q16566); test: Inhibition of human recombinant CaMK4 at 500 nM in presence of ATP by radiometric assay relative to control
T1 sequence (whole entry): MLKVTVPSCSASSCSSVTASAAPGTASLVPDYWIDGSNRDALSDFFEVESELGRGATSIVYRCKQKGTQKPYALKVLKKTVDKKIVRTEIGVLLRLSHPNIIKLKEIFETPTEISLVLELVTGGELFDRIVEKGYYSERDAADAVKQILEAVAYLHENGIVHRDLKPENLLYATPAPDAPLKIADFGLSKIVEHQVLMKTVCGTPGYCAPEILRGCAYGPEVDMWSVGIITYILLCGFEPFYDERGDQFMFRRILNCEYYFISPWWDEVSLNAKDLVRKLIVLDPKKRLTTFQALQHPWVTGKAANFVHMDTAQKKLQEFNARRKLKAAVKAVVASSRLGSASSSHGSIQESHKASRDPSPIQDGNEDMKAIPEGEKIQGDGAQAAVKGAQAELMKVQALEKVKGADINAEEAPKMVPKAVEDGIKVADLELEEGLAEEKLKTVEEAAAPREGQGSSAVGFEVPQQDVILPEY

[2] = target: T2, Serine/threonine-protein kinase Nek1 (Homo sapiens) (UniProt Q96PY6); test: Inhibition of human recombinant NEK1 at 15 nM in presence of ATP by radiometric assay relative to control
T2 sequence (whole entry): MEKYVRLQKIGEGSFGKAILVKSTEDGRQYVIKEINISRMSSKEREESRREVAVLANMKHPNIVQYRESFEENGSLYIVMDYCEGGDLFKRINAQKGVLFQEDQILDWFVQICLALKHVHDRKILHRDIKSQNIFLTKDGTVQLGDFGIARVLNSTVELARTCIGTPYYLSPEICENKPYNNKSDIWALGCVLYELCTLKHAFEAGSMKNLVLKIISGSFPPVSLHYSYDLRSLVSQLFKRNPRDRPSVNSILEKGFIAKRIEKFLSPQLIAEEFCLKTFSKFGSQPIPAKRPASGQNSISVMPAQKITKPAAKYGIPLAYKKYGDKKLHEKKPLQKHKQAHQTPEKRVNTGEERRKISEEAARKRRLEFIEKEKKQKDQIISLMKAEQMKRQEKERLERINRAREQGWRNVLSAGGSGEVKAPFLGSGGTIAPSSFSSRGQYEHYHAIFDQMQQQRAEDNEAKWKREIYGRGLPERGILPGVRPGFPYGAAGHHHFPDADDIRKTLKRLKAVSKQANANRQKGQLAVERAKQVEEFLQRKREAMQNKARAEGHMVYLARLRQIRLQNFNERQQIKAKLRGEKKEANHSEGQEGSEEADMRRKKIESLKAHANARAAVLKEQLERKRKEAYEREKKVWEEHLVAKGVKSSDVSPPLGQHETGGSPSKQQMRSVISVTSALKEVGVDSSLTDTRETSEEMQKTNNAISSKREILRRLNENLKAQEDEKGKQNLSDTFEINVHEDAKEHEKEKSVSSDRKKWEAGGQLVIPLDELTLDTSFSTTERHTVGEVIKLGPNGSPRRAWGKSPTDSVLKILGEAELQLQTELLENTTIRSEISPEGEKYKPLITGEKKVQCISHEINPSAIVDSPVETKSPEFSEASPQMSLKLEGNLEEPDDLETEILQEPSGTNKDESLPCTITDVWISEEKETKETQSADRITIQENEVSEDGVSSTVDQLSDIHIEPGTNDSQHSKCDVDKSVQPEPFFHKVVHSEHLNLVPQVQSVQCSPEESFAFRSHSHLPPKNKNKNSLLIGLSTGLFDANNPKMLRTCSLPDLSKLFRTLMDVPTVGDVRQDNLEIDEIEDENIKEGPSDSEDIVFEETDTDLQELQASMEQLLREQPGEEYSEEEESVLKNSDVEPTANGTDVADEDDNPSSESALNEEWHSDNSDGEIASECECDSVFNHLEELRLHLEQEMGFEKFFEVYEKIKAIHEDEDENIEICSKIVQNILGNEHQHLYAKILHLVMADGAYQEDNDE

[3] = target: Serine/threonine-protein kinase Nek6 (Homo sapiens) (UniProt Q9HC98); test: Inhibition of human recombinant NEK6 at 40 nM related to control ULK1
Chain of Serine/threonine-protein kinase Nek6 (Homo sapiens) (Q9HC98 whole entry): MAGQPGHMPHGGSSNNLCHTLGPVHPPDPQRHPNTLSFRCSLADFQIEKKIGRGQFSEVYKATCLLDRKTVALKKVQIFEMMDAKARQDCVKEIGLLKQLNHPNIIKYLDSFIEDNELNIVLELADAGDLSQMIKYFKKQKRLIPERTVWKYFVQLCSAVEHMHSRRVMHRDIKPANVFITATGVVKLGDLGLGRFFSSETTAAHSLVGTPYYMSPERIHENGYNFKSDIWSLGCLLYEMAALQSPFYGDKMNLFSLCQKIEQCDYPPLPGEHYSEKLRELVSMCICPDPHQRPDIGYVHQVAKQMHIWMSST

[4] = target: cAMP-dependent protein kinase catalytic subunit alpha (Homo sapiens) (UniProt P17612); test: Inhibition of human recombinant PKACalpha at 40 nM in presence of ATP by radiometric assay relative to control
[5] = target: Vascular endothelial growth factor receptor 1 (Homo sapiens) (UniProt P17948); test: Inhibition of human recombinant FLT1 at 40 nM related to control ULK1
Chain of Vascular endothelial growth factor receptor 1 (Homo sapiens) (P17948 whole entry): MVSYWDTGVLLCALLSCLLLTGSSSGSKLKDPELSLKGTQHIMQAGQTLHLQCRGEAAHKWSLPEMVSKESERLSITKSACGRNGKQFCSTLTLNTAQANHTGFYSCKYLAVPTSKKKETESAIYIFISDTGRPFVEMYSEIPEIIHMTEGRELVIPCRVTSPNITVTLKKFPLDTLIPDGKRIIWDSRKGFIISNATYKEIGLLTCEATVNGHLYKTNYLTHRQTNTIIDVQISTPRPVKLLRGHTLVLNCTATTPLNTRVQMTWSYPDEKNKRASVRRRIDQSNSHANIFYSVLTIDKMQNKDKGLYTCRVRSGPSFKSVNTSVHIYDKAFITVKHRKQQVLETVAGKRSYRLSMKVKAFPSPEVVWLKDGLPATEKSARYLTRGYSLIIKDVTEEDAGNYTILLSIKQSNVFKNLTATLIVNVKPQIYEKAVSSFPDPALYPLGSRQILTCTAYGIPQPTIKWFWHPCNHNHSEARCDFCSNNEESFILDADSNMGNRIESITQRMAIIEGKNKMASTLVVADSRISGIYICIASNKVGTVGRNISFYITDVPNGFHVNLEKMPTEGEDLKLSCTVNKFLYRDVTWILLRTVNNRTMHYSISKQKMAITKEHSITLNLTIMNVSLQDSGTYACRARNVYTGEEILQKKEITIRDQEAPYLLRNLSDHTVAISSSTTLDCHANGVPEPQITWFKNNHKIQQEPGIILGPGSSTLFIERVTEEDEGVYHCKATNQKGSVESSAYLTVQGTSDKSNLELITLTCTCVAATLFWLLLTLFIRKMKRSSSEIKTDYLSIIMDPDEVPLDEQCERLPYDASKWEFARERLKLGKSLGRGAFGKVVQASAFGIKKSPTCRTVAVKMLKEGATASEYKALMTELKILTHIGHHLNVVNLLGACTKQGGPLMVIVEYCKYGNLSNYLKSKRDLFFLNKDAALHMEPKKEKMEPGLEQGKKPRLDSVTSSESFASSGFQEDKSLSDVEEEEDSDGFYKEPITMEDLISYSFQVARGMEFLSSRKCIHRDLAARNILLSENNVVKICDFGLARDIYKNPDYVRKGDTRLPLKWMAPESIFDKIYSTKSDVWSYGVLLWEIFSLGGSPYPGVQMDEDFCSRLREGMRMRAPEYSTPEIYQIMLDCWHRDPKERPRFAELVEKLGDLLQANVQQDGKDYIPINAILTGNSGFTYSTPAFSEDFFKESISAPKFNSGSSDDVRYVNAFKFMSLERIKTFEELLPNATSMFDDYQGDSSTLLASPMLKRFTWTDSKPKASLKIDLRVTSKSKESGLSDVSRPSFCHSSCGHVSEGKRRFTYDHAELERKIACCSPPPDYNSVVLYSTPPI

- inhibition [1]: 0%
Structure (SMILES): CNC(=O)c1ccccc1Oc1nc(Nc2cc(OC)c(OC)c(OC)c2)ncc1Br

- inhibition [2]: 3%
Structure (SMILES): CC(C)[C@H](NC(=O)c1cc(-c2cnn3cc(-c4ccc(OCCN5CCCCC5)cc4)cnc23)cs1)C(F)(F)F

- fold change (FC) [3]: 0
- inhibition [4]: 0%
- fold change (FC) [5]: 0.25
Structure (SMILES): O=C(N[C@@H](C1CC1)C(F)(F)F)c1cc(-c2cnn3cc(-c4ccc(F)cc4)cnc23)cs1
